Like-named read-outs stand apart in the source and are kept apart here. Ends that are not written are not given here.
Key:
in vitro [1] = conditions: human, HeLa cells
in vitro [2] = conditions: human, THP-1 cells
HeLa cells [3] = test: Transduction of anti-NUP98 antibody, immuno-labelling and fluorescence microscopy; type: cell-based, Human; conditions: FSD19 7.5 μM; 4 hours
Method: Anti-NUP98 antibody […] was co-incubated with 7.5 μM of FSD19 and exposed to HeLa cells for 4 hours. Cells are washed, fixed with paraformaldehyde 4%, permeabilized with 0.1% Triton™ and labeled with a fluorescently labeled (Alexa™ Fluor 488) goat anti-rat antibody. Antibody bound to the perinuclear membrane and cell nuclei were visualized by fluorescence microscopy at 20× (upper panels) and 40× (lower panels).

B2M genomic DNA sequence = test: T7E1 DNA cleavage assay / % INDELs after CRISPR/Cas9-NLS or CRISPR/Cpf1-NLS delivery (HeLa, THP-1, NK, T cells); type: cell-based, Human; conditions: CRISPR/Cpf1 1.33 μM, crRNA 2 μM; THP-1 and NK cells; different concentrations and exposure times
Source text: The T7 endonuclease I (T7E1) can be used to detect on-target CRISPR/Cas genome editing events in cultured cells. As an overview, genomic DNA from target cells is amplified by PCR. The PCR products are then denatured and reannealed to allow heteroduplex formation between wild-type DNA and CRISPR/Cas-mutated DNA. T7E1, which recognizes and cleaves mismatched DNA, is used to digest the heteroduplexes. The resulting cleaved and full-length PCR products are visualized by gel electrophoresis.
The T7E1 assay was performed with the Edit-R™ Synthetic crRNA Positive Controls (Dharmacon #U-007000-05) and the T7 Endonuclease I (NEB, Cat #M0302S). After the delivery of the CRISPR/Cas complex, cells were lysed in 100 μL of Phusion™ High-Fidelity DNA polymerase (NEB #M0530S) laboratory with additives. The cells were incubated for 15-30 minutes at 56° C., followed by deactivation for 5 minutes at 96° C. The plate was briefly centrifuged to collect the liquid at bottom of the wells. 50-μL PCR samples were set up for each sample to be analyzed. The PCR samples were heated to 95° C. for 10 minutes and then slowly (>15 minutes) cooled to room temperature. PCR product (-5 μL) was then separated on an agarose gel (2%) to confirm amplification. 15 μL of each reaction was incubated with T7E1 nuclease for 25 minutes at 37° C. Immediately, the entire reaction volume was run with the appropriate gel loading buffer on an agarose gel (2%).
Cas9-NLS recombinant protein was prepared as described in Example 13.1. Cpf1-NLS recombinant protein was prepared as described in Example G.2. A mix composed of a Cas9-NLS recombinant protein with its respective crRNAltracrRNA, or a Cpf1-NLS recombinant protein with its respective single guide crRNA(s) (see below) targeting a nucleotide sequence of the B2M gene, was co-incubated with different concentrations of the peptides FSD10, FSD18, FSD19, FSD21, FSD22, or FSD23 and incubated with HeLa, THP-1 or NK cells for 90 sec in PBS, or for 1 h in medium without serum, or for 48 h in medium with serum, using the transduction protocols as generally described in Example 3.1a. Cells were then washed with PBS and harvested to proceed with the T7E1 protocol assay as described in Example 13.4.
FIGS. 52A-52D show the results of the cleavage of the targeted genomic B2M DNA sequence after the delivery of CRISPR/Cpf1 (1.33 μM) with crRNA−1 or crRNA−2 (2 μM) in the absence (“-ctrl”) or in the presence of the peptides FSD10, FSD18, FSD19, FSD21 or FSD23 used at different concentrations, exposure times, and in different types of cells: THP-1 (FIG. 52A), and NK (FIGS. 52B, 52C, 52D), after separation by agarose gel electrophoresis. […] Gel lanes were loaded in duplicate. Thin dashed arrows indicate the bands corresponding to the target gene, and thick solid arrows indicate the bands corresponding to the cleavage products of this target gene, which indicate the successful transduction of fully functional CRISPR genome editing complexes. We used a Bio-Rad ImageLab™ software (Version 5.2.1, Bio-Rad, http://www.bio-rad.com/en-ca/product/image-lab-software?tab=Download) to quantify the relative signal intensities of each of the different bands directly on the gels. The sum of all the bands in a given lane corresponds to 100% of the signal, and the numerical value in italics at the bottom of each lane is the sum of the relative signals (%) of only the two cleavage product bands (thick solid arrows). No cleavage product bands were found in the negative controls (“-ctrl”, i.e., to cells that were exposed to CRISPR system in the absence of FSD peptide).
Cas9-NLS recombinant protein was prepared as described in Example 13.1. Cpf1-NLS recombinant protein was prepared as described in Example G.2. […]

HeLa cells [4] = test: GFP-NLS protein transduction assay (flow cytometry: Pos cells %, viability %, relative fluorescence intensity; microscopy); conditions: for Mean % cells with GFP signal (±St. Dev.; n = 3): Table B2, HeLa cells, GFP-NLS cargo; for FIG. 13B Cell viability (%) (±St Dev.; n = 3): Table 5.1; for FIG. 13B Cell viability (%) (±St Dev.; n = 3) / FIG. 21B Cell viability (%) (±St. Dev.; n = 3): GFP-NLS 5 μM, HeLa, 1 hour; for FIG. 21B Cell viability (%) (±St. Dev.; n = 3): Table 8.1
in vitro [5] = conditions: human, HeLa cells; for viability: Cell viability (%) (±St Dev.; n = 3)
HeLa cells [6] = test: Plasmid DNA (pEGFP-C1) transfection by peptides (% cells with GFP signal, cell viability); conditions: DNA transfection in HeLa cells using peptides; pEGFP-C1 plasmid
THP-1 cells [7] = test: GFP-NLS protein transduction assay (flow cytometry: Pos cells %, viability %, relative fluorescence intensity; microscopy); conditions: for Mean % cells with GFP signal (±St. Dev.; n = 3): THP-1 cells, GFP-NLS 10 μM
NK-92 cells = test: NKG2A gene inactivation by delivered CRISPR/Cpf1-NLS: PE anti-NKG2A immunolabelling, FACS; type: cell-based, Human; conditions: FSD23 6 μM; Cpf1-NLS 1.5 μM; 90 sec; 48 h
Method: Genome editing was performed in NK-92 cells to evaluate whether inactivation of the endogenous NKG2A gene could increase the cytotoxicity of the NK-92 cells. Briefly, one million NK-92 cells were incubated with Cpf1-NLS (1.5 μM) gRNA complex targeting the NKG2A gene and with FSD23 (6 μM) for 90 sec. After transduction, cells were incubated in complete medium with IL-2 (20 ng/mL) for 48 h at 37° C. NK-92 cells were then immunolabelled with a phycoerythrin (PE)-labelled anti-NKG2A antibody (Miltenyi Biotec #CD159a) following the manufacturer recommendations. NK-92 cells were then analyzed with FACS and scored as a function of their anti-NKG2A detection (PE fluorescence) level and the results are shown in FIG. 57A. As controls, unlabelled wild-type NK-92 cells (“unlabelled WT cells”) had no antibody signal, and labelled wild-type NK-92 cells (“labelled WT cells”) had full immunolabelling signal.

THP-1 cells [8] = test: Cleaved PARP ELISA assay after transduction of anti-Active Caspase 3 or anti-TNF antibody (± actinomycin D); type: cell-based, human; conditions: FSD23 7.5 μM, 5 min
Method: (§1) A monoclonal (mAb) and a polyclonal (pAb) anti-Active Caspase 3 antibodies […] were independently co-incubated with THP-1 and Jurkat cells for 5 min in the presence of FSD23 at 7.5 μM. The anti-apoptotic effect of each antibody was assessed via the level of Caspase 3-activated apoptosis with an ELISA cleaved PARP assay and quantified by spectrometry as described below.
(§2) The day of the experiment, cells in exponential growth phase were harvested, centrifugated (400g for 3 min) and resuspended in serum-free RPMI in a 96-well plate (500,000 cells in 150 μL per well). Cells were centrifugated and incubated for 5 min with a mix composed by the peptide to be tested (7.5 μM) and 2 μg of the antibody to be transduced. Cells were centrifuged and resuspended in RPMI with serum in a 24-well plate for 1 h at 37° C. Actinomycin D (2 μg/mL), a cytotoxic inducer of apoptosis, was incubated with the cells for 4 h. Cells were washed with cold PBS and tested using the PARP (Cleaved) [214/215]Human ELISA Kit (ThermoFisher) according to the manufacturer's instructions followed by spectroscopy analysis. […]

Jurkat cells = test: as above; type: cell-based, Human; conditions: FSD23 7.5 μM, 5 min
Method: as §1, §2

HeLa cells [9] = type: cell-based, Human; conditions: GFP (5 μM), 1 hour
Method: One day before the transduction assay was performed, cells in exponential growth phase were harvested and plated in a 96-well plate (20,000 cells per well). The cells were incubated overnight in appropriate growth media containing FBS (see Example 1). The next day, in separate sterile 1.5 mL tubes, cargo protein at the indicated concentration was pre-mixed (pre-incubated) for 1 or 10 min (depending on the protocol) at 37° C. with the peptide(s) to be tested shuttle agents (0.5 to 5 μM) in 50 μL of fresh medium without serum (unless otherwise specified). The media in wells was removed and the cells were washed three times with freshly prepared phosphate buffered saline (PBS) previously warmed at 37° C. The cells were incubated with the cargo protein/shuttle agent mixture at 37° C. for the indicated time (e.g., 1, 5 or 60 min). After the incubation, the cells were quickly washed three times with freshly prepared PBS and/or heparin (0.5 mg/mL) previously warmed at 37° C. […] The cells were finally incubated in 50 μL of fresh medium with serum at 37° C. before analysis.
The Olympus filter U-MF2™ (C54942-Exc495/Em510) was used to observe GFP and FITC-labeled antibody fluorescent signals. […] The Olympus filter U-MWU2™ (Exc330/Em385) was used to observe DAPI or Blue Hoechst fluorescent signals. The cells incubated in 50 μL of fresh medium were directly observed by microscopy (Bright-field and fluorescence) at different power fields (4× to 40×). The cells were observed using a CoolSNAP-PRO™ camera (Series A02D874021) and images were acquired using the Image-Proplus™ software.
The fluorescence of GFP was quantified using flow cytometry (Accuri C6, Becton, Dickinson and Company (BD)). Untreated cells were used to establish a baseline in order to quantify the increased fluorescence due to the internalization of the fluorescent protein in treated cells. The percentage of cells with a fluorescence signal above the maximum fluorescence of untreated cells, “mean %” or “Pos cells (%)”, is used to identify positive fluorescent cells. “Relative fluorescence intensity (FL1−A)” corresponds to the mean of all fluorescence intensities from each cell with a fluorescent signal after fluorescent protein delivery with the shuttle agent. Also, the events scanned by flow cytometry corresponding to cells (size and granularity) were analyzed. The cellular toxicity (% cell viability) was monitored comparing the percentage of cells in the total events scanned of treated cells comparatively to untreated cells.

HeLa cells [10] = test: TAT-GFP protein transduction assay (flow cytometry, cell viability, fluorescence microscopy); type: cell-based, Human; conditions: TAT-GFP 5 μM, 1 hour
Method: Briefly, TAT-GFP recombinant protein (5 μM) was co-incubated with different concentrations of CM18-TAT-Cys (0, 0.5, 1, 3, or 5 μM) and then exposed to HeLa cells for 1 hour.

primary myoblasts = test: Calcein endosomal escape assay, quantification by flow cytometry (mean counts, Mean Factor); type: cell-based, Human; conditions: myoblast cells
Source text: Calcein is a membrane-impermeable fluorescent molecule that is readily internalized by cells when administered to the extracellular medium. Its fluorescence is […] and calcein self-quenches at higher concentrations. Once internalized, calcein becomes sequestered at high concentrations in cell endosomes and can be visualized by fluorescence microscopy as a punctate pattern. Following endosomal leakage, calcein is released to the cell cytoplasm and this release can be visualized by fluorescence microscopy as a diffuse pattern.
The cells were allowed to attach by incubating overnight in appropriate growth media, as described in Example 1. The next day, the media in wells was removed and replaced with 50 μL of fresh media without serum containing 62.5 μg/mL (100 μM) of calcein, except for HEK293A (250 μg/mL, 400 μM). […]
Untreated calcein-loaded cells were used as a control to distinguish cells having a baseline of fluorescence due to endosomally-trapped calcein from cells having increased fluorescence due to release of calcein from endosomes. Fluorescence signal means (“mean counts”) were analyzed for endosomal escape quantification. In some cases, the “Mean Factor” was calculated, which corresponds to the fold-increase of the mean counts relative to control (untreated calcein-loaded cells). […] The cellular mortality was monitored with the percentage of cells in the total events scanned. […]

HeLa cells [11] = test: FITC-labeled anti-tubulin antibody transduction assay (flow cytometry, cell viability, microscopy); conditions: FITC-labeled anti-tubulin antibody 0.5 μM, HeLa, 1 hour; shuttle 3.5 μM
Method: The delivery and microscopy protocols are described in Example 3.
HeLa cells were cultured and tested in the protein transduction assay described in Example 3.1. […] The cells were subjected to flow cytometry analysis as described in Example 3.3.

## HHHHHHLLKLWSRLLKTWTQGRRLKAKSAQASTRQAHHHHHH [FSD19]
In vitro [1]
  viability: 97.4 ± 2.07%
In vitro [2]
  viability at 15 s, 5 µM: 60.5 ± 5.71%
  viability at 0.5 min, 2 µM: 68.7 ± 4.29%
HeLa cells [3]
  functionality of transduced anti-NUP98 antibody (microscopy): anti-NUP98 antibody retained its functionality inside the cell following its transduction
B2M genomic DNA sequence
  delivery of CRISPR/Cpf1 complex, cleavage of genomic B2M (in words): successful delivery of the CRISPR genome-editing complexes to the nucleus
HeLa cells [4]
  Mean % cells with GFP signal (±St. Dev.; n = 3): 55.17 ± 4.62%
In vitro [5]
  viability: 80.6 ± 5.36%
HeLa cells [6]
  Mean % cells with GFP signal (±St. Dev.; n = 3): 0.24 ± 0.00%
THP-1 cells [7]; peptide 2 μM, incubation 0.5 min
  Mean % cells with GFP signal (±St. Dev.; n = 3): 55.4 ± 4.63%
THP-1 cells [7]; peptide 5 μM, incubation 0.25 min
  Mean % cells with GFP signal (±St. Dev.; n = 3): 61.5 ± 6.07%

## HHHHHHLLKLWSRLLKEWTQGRRLEAKRAEAHHHHHH [FSD23]
NK-92 cells
  NKG2A receptor expression on the cell surface after genome editing: two cell populations (peaks) were observed
THP-1 cells [8]
  transduction of functional anti-Active Caspase 3 antibodies (cleaved PARP, in words): successfully transduced functional anti-Active Caspase 3 antibodies
In vitro [1]
  viability: 98.2 ± 1.03%
B2M genomic DNA sequence
  delivery of CRISPR/Cpf1 complex, cleavage of genomic B2M (in words): successful delivery of the CRISPR genome-editing complexes to the nucleus
Jurkat cells
  transduction of functional anti-Active Caspase 3 antibodies (cleaved PARP, in words): successfully transduced functional anti-Active Caspase 3 antibodies
HeLa cells [4]
  Mean % cells with GFP signal (±St. Dev.; n = 3): 50.34 ± 4.29%
In vitro [5]
  viability: 65.3 ± 5.44%
HeLa cells [6]
  Mean % cells with GFP signal (±St. Dev.; n = 3): 0.04 ± 0.00%

## KWKLFKKIGAVLKVLTTGYGRKKRRQRRRC [CM18-TAT-Cys]
HeLa cells [9]; shuttle 0.5 μM
  Cell viability (%): 88.4 ± 6%
HeLa cells [9]; shuttle 1 μM
  Cell viability (%): 90 ± 6%
HeLa cells [9]; shuttle 3 μM
  Cell viability (%): 91 ± 5%
HeLa cells [9]; shuttle 5 μM
  Cell viability (%): 90 ± 7%
HeLa cells [10]; shuttle 0.5 μM
  FIG. 11B Cell viability (%) (±St. Dev.; n = 3): 84.36 ± 5%
HeLa cells [10]; shuttle 1 μM
  FIG. 11B Cell viability (%) (±St. Dev.; n = 3): 89.26 ± 5.26%
HeLa cells [10]; shuttle 3 μM
  FIG. 11B Cell viability (%) (±St. Dev.; n = 3): 93.18 ± 6.28%
HeLa cells [10]; shuttle 5 μM
  FIG. 11B Cell viability (%) (±St. Dev.; n = 3): 95.14 ± 5.28%
In vitro [1]
  viability: 96.3 ± 1.86%
Primary myoblasts
  peptide concentrations associated with an increase in cell toxicity: above 10 μM
HeLa cells [4]; shuttle 0.5 μM
  FIG. 13B Cell viability (%) (±St Dev.; n = 3): 87.6 ± 4%
HeLa cells [4]; shuttle 1 μM
  FIG. 13B Cell viability (%) (±St Dev.; n = 3): 93 ± 8%
HeLa cells [4]; shuttle 5 μM
  FIG. 13B Cell viability (%) (±St Dev.; n = 3): 93 ± 4%
  FIG. 21B Cell viability (%) (±St. Dev.; n = 3): 81 ± 6.34%
HeLa cells [4]; shuttle 3 μM
  FIG. 21B Cell viability (%) (±St. Dev.; n = 3): 89 ± 5.37%
In vitro [5]
  viability at 1 h, 1 µM: 94 ± 4.28%
HeLa cells [11]
  FIG. 19B Cell viability (%) (± St. Dev.; n = 3): 95 ± 4.06%
THP-1 cells [7]; Table 5.5, GFP-NLS 5 μM, THP-1, 5 minutes, shuttle 1 μM
  FIG. 17B Cell viability (%) (±St Dev.; n = 3): 85 ± 6%

Source: patent US12286632B2, “Rationally-designed synthetic peptide shuttle agents for delivering polypeptide cargos from an extracellular space to the cytosol and/or nucleus of a target eukaryotic cell, uses thereof, methods and kits relating to same” (Feldan Bio Inc., priority 2016, dated 2025)
